From patent US8329755B2, “Methods for treating retroviral infections” (Roche Palo Alto LLC, priority 2004, dated 2012)

Compound | melting point [°C]
O=C(Cc1ccc(Cl)c(Sc2cc(Cl)ccc2Br)c1)Nc1ccccc1Cl [Compound I-244, 2-[3-(2-Bromo-5-chloro-phenylsulfanyl)-4-chloro-phenyl]-N-(2-chloro-phenyl)-acetamide] | 172.2 to 172.8
Cc1cc(S(=O)(=O)NCCN2CCOCC2)ccc1NC(=O)Cc1ccc(C)c(Oc2cc(Cl)cc(C#N)c2)c1 [Compound I-118, 2-[3-(3-Chloro-5-cyano-phenoxy)-4-methyl-phenyl]-N-[2-methyl-4-(2-morpholin-4-yl-ethylsulfamoyl)-phenyl]-acetamide] | 177 to 181
CC(C)CC(=O)NS(=O)(=O)c1ccc(NC(=O)Cc2ccc(Cl)c(Oc3cc(Cl)cc(C#N)c3)c2F)c(Cl)c1.[Na] | 159.3 to 163.4
Cc1cc(OCCCS(N)(=O)=O)ccc1NC(=O)Cc1ccc(Cl)c(Oc2cc(Cl)ccc2Br)c1 [Compound I-3, 2-[3-(2-Bromo-5-chloro-phenoxy)-4-chloro-phenyl]-N-[2-methyl-4-(3-sulfamoyl-propoxy)-phenyl]-acetamide] | 190.1 to 192.2
Cc1cc(N2CCCS2(=O)=O)ccc1NC(=O)Cc1ccc(C)c(Oc2cc(Cl)cc(C#N)c2)c1 [Compound I-170, 2-[3-(3-Chloro-5-cyano-phenoxy)-4-methyl-phenyl]-N-[4-(1,1-dioxo-1λ^6-isothiazolidin-2-yl)-2-methyl-phenyl]-acetamide] | 182.5 to 184.6
CCOC(=O)C(=O)Nc1ccc(NC(=O)Cc2ccc(C)c(Oc3cc(Cl)cc(C#N)c3)c2)c(C)c1 [Compound I-178, N-(4-{2-[3-(3-Chloro-5-cyano-phenoxy)-4-methyl-phenyl]-acetylamino}-3-methyl-phenyl)-oxalamic acid ethyl ester] | 182.5 to 183.9
Cc1cc(CC(=O)Nc2ccccc2Cl)cc(C(=O)c2cccc(Cl)c2)c1 [Compound I-262, 2-[3-(3-Chloro-benzoyl)-5-methyl-phenyl]-N-(2-chloro-phenyl)-acetamide] | 113 to 113.8
Cc1cc(CC(=O)Nc2ccccc2Cl)cc(C(=O)c2cc(Cl)cc(Cl)c2)c1 [Compound I-231, N-(2-Chloro-phenyl)-2-[3-(3,5-dichloro-benzoyl)-5-methyl-phenyl]-acetamide] | 142 to 146.2
Cc1ccc(CC(=O)Nc2ccc(C(=O)O)cc2Cl)c(F)c1Oc1cc(C#N)cc(C(F)F)c1 [Compound I-110, 3-Chloro-4-{2-[3-(3-cyano-5-difluoromethyl-phenoxy)-2-fluoro-4-methyl-phenyl]-acetylamino}-benzoic acid] | 216.9 to 218.3
Cc1cc(OC[C@@H](O)CO)ccc1NC(=O)Cc1ccc(C)c(Oc2cc(Cl)cc(C#N)c2)c1 [Compound I-150, 2-[3-(3-Chloro-5-cyano-phenoxy)-4-methyl-phenyl]-N-[4-((S)-2,3-dihydroxy-propoxy)-2-methyl-phenyl]-acetamide] | 137.5 to 138.4
CCCCC(=O)NS(=O)(=O)c1ccc(NC(=O)Cc2ccc(Cl)c(Oc3cc(Cl)cc(C#N)c3)c2F)c(Cl)c1.[Na] | 157.6 to 159.2
N#Cc1cc(C#N)cc(Oc2c(Cl)ccc(CC(=O)Nc3ccccc3Cl)c2F)c1 [Compound I-28, 2-[4-Chloro-3-(3,5-dicyano-phenoxy)-2-fluoro-phenyl]-N-(2-chloro-phenyl)-acetamide] | 182.6 to 196.5
CCc1ccc(CC(=O)Nc2ccccc2Cl)cc1Oc1cc(C#N)cc(F)c1Cl [Compound I-59, 2-[3-(2-Chloro-5-cyano-3-fluoro-phenoxy)-4-ethyl-phenyl]-N-(2-chloro-phenyl)-acetamide] | 142.1 to 142.8
COCC(=O)N(C)S(=O)(=O)c1ccc(NC(=O)Cc2ccc(Cl)c(Oc3cc(Cl)cc(C#N)c3)c2F)c(Cl)c1 [Compound I-171, 2-[4-Chloro-3-(3-chloro-5-cyano-phenoxy)-2-fluoro-phenyl]-N-{2-chloro-4-[(2-methoxy-acetyl)-methyl-sulfamoyl]-phenyl}-acetamide] | 183.2 to 185.5
CN(C(=O)Cc1ccc(Cl)c(Oc2cc(Cl)cc(C#N)c2)c1F)c1ccccc1Cl [Compound I-111, 2-[4-Chloro-3-(3-chloro-5-cyano-phenoxy)-2-fluoro-phenyl]-N-(2-chloro-phenyl)-N-methyl-acetamide] | 134 to 137.1

Further lines, results first:

melting point [°C] | Compound
188 to 198 | CCc1ccc(CC(=O)Nc2ccc(S(N)(=O)=O)cc2)cc1Oc1cc(C#N)cc(C(F)F)c1 [Compound I-91, 2-[3-(3-Cyano-5-difluoromethyl-phenoxy)-4-ethyl-phenyl]-N-(4-sulfamoyl-phenyl)-acetamide]
198 to 202 | N#Cc1cc(Oc2cc(CC(=O)Nc3ccc(S(N)(=O)=O)cc3Cl)ccc2Cl)cc(C(F)(F)F)c1 [Compound I-90, 2-[4-Chloro-3-(3-cyano-5-trifluoromethyl-phenoxy)-phenyl]-N-(2-chloro-4-sulfamoyl-phenyl)-acetamide]
246 to 250.6 | Cc1cc(S(N)(=O)=O)ccc1NC(=O)Cc1ccc(Cl)c(Oc2cc(Br)cc(C#N)c2)c1F [Compound I-185, 2-[3-(3-Bromo-5-cyano-phenoxy)-4-chloro-2-fluoro-phenyl]-N-(2-methyl-4-sulfamoyl-phenyl)-acetamide]
165 to 167 | Cc1cc(CC(=O)Nc2ccc(S(N)(=O)=O)cc2)cc(C(=O)c2ccccc2Cl)c1 [Compound I-263, 2-[3-(2-Chloro-benzoyl)-5-methyl-phenyl]-N-(4-sulfamoyl-phenyl)-acetamide]
180 to 181.4 | Cc1cc(NS(C)(=O)=O)ccc1NC(=O)Cc1ccc(C)c(Oc2cc(Cl)cc(C#N)c2)c1 [Compound I-237, 2-[3-(3-Chloro-5-cyano-phenoxy)-4-methyl-phenyl]-N-(4-methanesulfonylamino-2-methyl-phenyl)-acetamide]
207.7 to 209.3 | Cc1cc(CC(=O)Nc2ccc(S(N)(=O)=O)cc2C)cc(C(=O)c2ccccc2Cl)c1 [Compound I-256, 2-[3-(2-Chloro-benzoyl)-5-methyl-phenyl]-N-(2-methyl-4-sulfamoyl-phenyl)-acetamide]
229.7 to 231.3 | Cc1cc(CC(=O)Nc2ccc(S(N)(=O)=O)cc2)cc(Oc2cc(Cl)cc(C#N)c2)c1C [Compound I-182, 2-[3-(3-Chloro-5-cyano-phenoxy)-4,5-dimethyl-phenyl]-N-(4-sulfamoyl-phenyl)-acetamide]
247 to 249.9 | NS(=O)(=O)c1ccc(NC(=O)Cc2ccc(Cl)c(Oc3cc(Cl)cc(Cl)c3Cl)c2F)cc1 [Compound I-10, 2-[4-Chloro-2-fluoro-3-(2,3,5-trichloro-phenoxy)-phenyl]-N-(4-sulfamoyl-phenyl)-acetamide]
169.9 to 171.1 | COc1cc(CC(=O)Nc2ccc(S(N)(=O)=O)cc2C)cc(Oc2cc(Cl)cc(C#N)c2)c1 [Compound I-133, 2-[3-(3-Chloro-5-cyano-phenoxy)-5-methoxy-phenyl]-N-(2-methyl-4-sulfamoyl-phenyl)-acetamide]
222.5 to 225 | CCc1ccc(CC(=O)Nc2ccc(S(N)(=O)=O)cc2)cc1Oc1c(Cl)cccc1Cl [Compound I-20, 2-[3-(2,6-Dichloro-phenoxy)-4-ethyl-phenyl]-N-(4-sulfamoyl-phenyl)-acetamide]
196.4 to 198.7 | N#Cc1cccc(Oc2cc(CC(=O)Nc3ccc(S(N)(=O)=O)cc3)cc3ccoc23)c1 [Compound I-144, 2-[7-(3-Cyano-phenoxy)-benzofuran-5-yl]-N-(4-sulfamoyl-phenyl)-acetamide]
199.4 to 205.3 | CCc1ccc(CC(=O)Nc2ccc(S(N)(=O)=O)cc2C)cc1Oc1cc(C#N)cc(C#N)c1Cl [Compound I-53, 2-[3-(2-Chloro-3,5-dicyano-phenoxy)-4-ethyl-phenyl]-N-(2-methyl-4-sulfamoyl-phenyl)-acetamide]
171.7 to 172.6 | Cc1cc(S(=O)(=O)NC2CCOCC2)ccc1NC(=O)Cc1ccc(C)c(Oc2cc(Cl)cc(C#N)c2)c1 [Compound I-128, 2-[3-(3-Chloro-5-cyano-phenoxy)-4-methyl-phenyl]-N-[2-methyl-4-(tetrahydro-pyran-4-ylsulfamoyl)-phenyl]-acetamide]
228.9 to 230.6 | Cc1ccc(CC(=O)Nc2ccc(S(N)(=O)=O)cc2Cl)c(F)c1Oc1cc(Cl)cc(C#N)c1 [Compound I-83, 2-[3-(3-Chloro-5-cyano-phenoxy)-2-fluoro-4-methyl-phenyl]-N-(2-chloro-4-sulfamoyl-phenyl)-acetamide]
212 to 216.1 | Cc1cc(S(N)(=O)=O)ccc1NC(=O)Cc1ccc(Cl)c(Oc2cc(C#N)cc(C(F)(F)F)c2)c1F [Compound I-120, 2-[4-Chloro-3-(3-cyano-5-trifluoromethyl-phenoxy)-2-fluoro-phenyl]-N-(2-methyl-4-sulfamoyl-phenyl)-acetamide]
192 to 197.6 | CC(F)(F)c1cc(C#N)cc(Oc2c(Cl)ccc(CC(=O)Nc3ccc(S(N)(=O)=O)cc3Cl)c2F)c1 [Compound I-97, 2-{4-Chloro-3-[3-cyano-5-(1,1-difluoro-ethyl)-phenoxy]-2-fluoro-phenyl}-N-(2-chloro-4-sulfamoyl-phenyl)-acetamide]
207 to 209.8 | CC(F)(F)c1cc(C#N)cc(Oc2c(Cl)ccc(CC(=O)Nc3ccc(S(N)(=O)=O)cc3)c2F)c1 [Compound I-95, 2-{4-Chloro-3-[3-cyano-5-(1,1-difluoro-ethyl)-phenoxy]-2-fluoro-phenyl}-N-(4-sulfamoyl-phenyl)-acetamide]
231.6 to 233.1 | CCc1cc(CC(=O)Nc2ccc(S(N)(=O)=O)cc2C)cc(Oc2cc(C#N)ccc2Cl)c1 [Compound I-106, 2-[3-(2-Chloro-5-cyano-phenoxy)-5-ethyl-phenyl]-N-(2-methyl-4-sulfamoyl-phenyl)-acetamide]
170.1 to 173.2 | Cc1cc(S(N)(=O)=O)ccc1NC(=O)Cc1ccc(Cl)c(Oc2cc(C#N)cc(C#CCO)c2)c1F [Compound I-186, 2-{4-Chloro-3-[3-cyano-5-(3-hydroxy-prop-1-ynyl)-phenoxy]-2-fluoro-phenyl}-N-(2-methyl-4-sulfamoyl-phenyl)-acetamide]
184.1 to 185.5 | COc1cc(CC(=O)Nc2ccc(S(N)(=O)=O)cc2)cc(Oc2cc(Cl)cc(C#N)c2)c1 [Compound I-132, 2-[3-(3-Chloro-5-cyano-phenoxy)-5-methoxy-phenyl]-N-(4-sulfamoyl-phenyl)-acetamide]
